No end group written: not given here. Alexa 488 = Alexa-488 fluorophore (from tetrafluorophenyl ester) on the Lys side-chain amine
What was measured:
[1] = molecular target: T1, HLA-DR1 (DR1) (DRA*0101/DRB1*010101) (Homo sapiens, UniProt P01903+P01911, A100R/D57E/F55L/F60I/F76Y/I96L/L162R/M171V/P40L/Q125E/R42F/V115G/Y59C); experiment: MHC II stabilization assay; details: 1 μM DR1-W1A with 1 μM DM, or 1 μM DM and 50 μM W1A, 37 °C 1 hour, pH 5.5, Superdex200; at least four independent experiments
MHC II = details: cited from earlier work
[2] = molecular target: T1, HLA-DR1 (DR1) (DRA*0101/DRB1*010101); experiment: Numerical modeling; type: binding; details: best fit value, Scheme V; DM-MHC resolves into inactive MHC II in the absence of peptides; kept the same for HA and CLIP; 0.4 μM DR1, 0.4 μM DM
[3] = Peptide occupancy, quantitative amino acid analysis of acid-eluted material; details: control DM sample
[4] = molecular target: DM-MHC II intermediate (complex of HLA-DM with active peptide-free DR1) (human) (UniProt P28067); experiment: fluorescence polarisation

**Q.** With Ac-GSDARFLRGYHQYA [W1A] as the molecule, how does the “inhibition of aggregation of DR1 loaded with weakly binding peptide W1A” value [1] read?
**A.** Excess of peptides but not DM could inhibit the aggregation of MHC II

**Q.** And the “susceptibility to DM-mediated peptide release” value (MHC II; DR1-bound)?
**A.** extremely susceptible to DM-mediated peptide release

**Q.** For Ac-VSKMRMATPLLMQ [CLIP], which k5 [2] is on record?
**A.** 0.36 min⁻¹

**Q.** And the “intrinsic and DM-catalyzed dissociation half-life” value (MHC II; as previously reported)?
**A.** ~ 5 hours

**Q.** Which “amino acid content of acid-eluted material” value [3] does the source give for “DM: soluble extracellular domains of recombinant DM expressed in Drosophila S2 cells” here?
**A.** 3.46 nmol amino acid per 50 nmol protein

B1: Alexa488-labeled CLIP peptide (Ac-…) (peptide)
peptide: Ac-VSK(Alexa 488)MRMATPLLMQ
**Q.** For B1, which k6 (another combination that gives the same fit) [4] is on record?
**A.** 2.85 µM⁻¹ min⁻¹

**Q.** What about the k6 (peptide binds the intermediate DM-MHC to give DM-MHCpep') [4] of the same molecule?
**A.** 5.21 µM⁻¹ min⁻¹

**Q.** What about the k-6 (peptide leaves DM-MHCpep') [4] of the same molecule?
**A.** 0.022 min⁻¹

Source: PMC4490944 (Journal of immunology (Baltimore, Md. : 1950), 2015)
